This is an account of results in ChEMBL document CHEMBL1149446, “Synthesis and antiprotozoal activity of some new synthetic substituted quinoxalines” (Bioorg Med Chem Lett, 2006).

As usually defined, the IC50 is the concentration at which inhibition is half-maximal. A low value points to greater potency in that assay.

For one test, the system named is Trichomonas vaginalis. The test can be described thus: Antiprotozoal activity against Trichomonas vaginalis CMP. It is filed as functional, organism-based.
For the next test, the system named is Leishmania donovani. The test can be described thus: Antiprotozoal activity against Leishmania donovani MHOM/ET/L82/LV9. The test is classed as functional, organism-based.
For test [1], the system named is Trypanosoma brucei brucei. The test can be described thus: Antiprotozoal activity against Trypanosoma brucei brucei GVR35. It is filed as functional.

Regarding `CCc1ccc(OCc2ccccc2C(=O)Nc2ccc3nccnc3c2)cc1`, the half-maximal inhibitory concentration (IC50) was 126 µM with Trichomonas vaginalis and 18.5 µM in the test on Leishmania donovani. This compound also had an MAC in test [1] of 150 µM.

In the case of `CCCCCCC(=O)Nc1ccc2nccnc2c1`, the half-inhibitory concentration (IC50) in the test on Trichomonas vaginalis was > 300 µM; in the test with Leishmania donovani, 117 µM. Further, the MAC in test [1] is >300 µM.

For `CCCCCCCCCCCCCCCC(=O)Nc1ccc2nc(C)c(C)nc2c1`, the 50% inhibitory concentration (IC50) in the test on Trichomonas vaginalis and in the test on Leishmania donovani was > 300 µM in each case. The MAC in test [1] is >300 µM.

As to `c1ccc2c(CNc3ccc4nccnc4c3)ccnc2c1`, the IC50 with Trichomonas vaginalis was > 300 µM; with Leishmania donovani, 34 µM. Moreover, in test [1], the MAC is >300 µM.

As for `CCc1ccc(OCc2ccccc2NC(=O)c2ccc3nc(-c4ccccc4)c(-c4ccccc4)nc3c2)cc1`, the half-inhibitory concentration (IC50) in the test on Trichomonas vaginalis and in the test with Leishmania donovani was > 300 µM throughout. For the same compound, the MAC in test [1] was >300 µM.

With `O=C(Nc1ccc2nccnc2c1)c1ccc(Br)o1`, the IC50 with Trichomonas vaginalis and with Leishmania donovani was > 300 µM in each case. Besides, in test [1], the MAC was >300 µM.

In the case of `COc1cc2oc3ccccc3c2cc1NC(=O)c1ccc2nccnc2c1`, the half-maximal inhibitory concentration (IC50) in the test with Trichomonas vaginalis and with Leishmania donovani was > 300 µM each time. For the same compound, in test [1], the MAC was >300 µM.

For `CCCCCCCCCCCCC(=O)Nc1ccc2nccnc2c1Br`, the IC50 in the test with Trichomonas vaginalis and with Leishmania donovani was > 300 µM in each case. Moreover, the MAC in test [1] was >300 µM.

Consider `O=C(Nc1ccc2nccnc2c1Br)c1ccc2ccccc2n1`, for which the 50% inhibitory concentration (IC50) in the test with Trichomonas vaginalis and with Leishmania donovani was > 300 µM each time. Further, in test [1], the MAC was >300 µM.

Take `CCCCCNc1ccc2nccnc2c1`: the results for the half-maximal inhibitory concentration (IC50) in the test with Trichomonas vaginalis and in the test with Leishmania donovani were 243 µM and 46.3 µM, respectively. For the same compound, the MAC in test [1] is >300 µM.

As to `O=C(Nc1cccc2c1oc1ccccc12)c1ccc2nc(-c3ccccc3)c(-c3ccccc3)nc2c1`, the IC50 in the test on Trichomonas vaginalis and with Leishmania donovani was > 300 µM throughout. Besides, the MAC in test [1] was >300 µM.

The compound `CCCCCCCCCCCCCCCCOP(=O)([O-])OCC[N+](C)(C)C` [MILTEFOSINE] yielded an IC50 in the test with Leishmania donovani of 7.3 µM.

Regarding `CCc1ccc(OCc2ccccc2C(=O)Nc2ccc3nc(C)cnc3c2)cc1`, the IC50 is > 300 µM in the test on Trichomonas vaginalis and 12.5 µM in the test on Leishmania donovani. In test [1], this compound displayed an MAC of 200 µM.

With `O=[N+]([O-])c1ccc(CNc2ccc3nccnc3c2)cc1`, the values for the IC50 in the test on Trichomonas vaginalis and in the test on Leishmania donovani were 191 µM and > 300 µM, respectively. In addition, the MAC in test [1] was >300 µM.

For the compound `Cc1nc2ccc(NC(=O)C34CC5CC(CC(C5)C3)C4)cc2nc1C`, the concentration for half-maximal inhibition (IC50) in the test on Trichomonas vaginalis and with Leishmania donovani was > 300 µM throughout. In addition, in test [1], the MAC is >300 µM.

As to `COc1cc2oc3ccccc3c2cc1N(C(=O)c1ccc2nc(-c3ccccc3)c(-c3ccccc3)nc2c1)C(=O)c1ccc2nc(-c3ccccc3)c(-c3ccccc3)nc2c1`, the IC50 with Trichomonas vaginalis and with Leishmania donovani was > 300 µM each time. Also, the MAC in test [1] is >300 µM.

For `CCn1c2ccccc2c2cc(NC(=O)c3ccc4nc(-c5ccccc5)c(-c5ccccc5)nc4c3)ccc21`, the half-inhibitory concentration (IC50) in the test with Trichomonas vaginalis and in the test with Leishmania donovani was > 300 µM in each case. Further, the MAC in test [1] was >300 µM.

With `CCCCCCC(=O)Nc1ccc2nccnc2c1Br`, the IC50 in the test with Trichomonas vaginalis and in the test on Leishmania donovani was > 300 µM throughout. Moreover, in test [1], the MAC was >300 µM.

For the compound `COc1cc2oc3ccccc3c2cc1NC(=O)c1ccc2nc(-c3ccccc3)c(-c3ccccc3)nc2c1`, the half-inhibitory concentration (IC50) in the test with Trichomonas vaginalis and in the test with Leishmania donovani was > 300 µM throughout. Also, the MAC in test [1] is >300 µM.

Regarding `c1cnc2cc(NCc3ccc4c(c3)OCO4)ccc2n1`, the figures for the half-maximal inhibitory concentration (IC50) with Trichomonas vaginalis and in the test on Leishmania donovani were > 300 µM and 79.5 µM, respectively. The MAC in test [1] is >300 µM.

Consider `CCc1ccc(OCc2ccccc2NC(=O)c2ccc3nccnc3c2)cc1`, for which the IC50 with Trichomonas vaginalis is > 300 µM; in the test on Leishmania donovani it was 18.4 µM. For the same compound, the MAC in test [1] came to 200 µM.

For the compound `CCc1ccc(OCc2ccccc2C(=O)Nc2ccc3nc(C)c(C)nc3c2)cc1`, the IC50 in the test on Trichomonas vaginalis is > 300 µM; in the test with Leishmania donovani it was 8.2 µM. The same compound returned an MAC in test [1] of 200 µM.

As for `CCc1ccc(OCc2ccccc2C(=O)Nc2ccc3nc(-c4ccccc4)c(-c4ccccc4)nc3c2)cc1`, the concentration for half-maximal inhibition (IC50) in the test with Trichomonas vaginalis and in the test with Leishmania donovani was > 300 µM each time. In test [1], the MAC was >300 µM.

In the test on Trichomonas vaginalis, `Cc1ncc([N+](=O)[O-])n1CCO` [METRONIDAZOLE] displayed a concentration for half-maximal inhibition (IC50) of 5.8 µM.

Regarding `CCn1c2ccccc2c2cc(NC(=O)c3ccc4nccnc4c3)ccc21`, the IC50 in the test with Trichomonas vaginalis and in the test with Leishmania donovani was > 300 µM in each case. The MAC in test [1] stood at 200 µM.

Take `c1ccc(CNc2ccc3nccnc3c2)cc1`: the IC50 amounted to 264 µM with Trichomonas vaginalis and 92.4 µM in the test on Leishmania donovani. Moreover, the MAC in test [1] was >300 µM.

Turning to `Nc1nc(N)nc(Nc2ccc([As]3SCC(CO)S3)cc2)n1` (stereo not given) [MELARSOPROL], in test [1], the MAC was 0.1 µM.

Consider `O=C(Nc1ccc2nccnc2c1Br)c1ccc(C(=O)c2ccccc2)cc1`, for which the IC50 in the test with Trichomonas vaginalis and in the test on Leishmania donovani was > 300 µM throughout. For the same compound, in test [1], the MAC is >300 µM.

Take `CCc1ccc(OCc2ccccc2NC(=O)c2ccc3nc(C)c(C)nc3c2)cc1`: the concentration for half-maximal inhibition (IC50) in the test with Trichomonas vaginalis and with Leishmania donovani was > 300 µM throughout. Also, the MAC in test [1] is >300 µM.

Consider `CCCCCCCCCCCCCCCC(=O)Nc1ccc2nccnc2c1Br`, for which the concentration for half-maximal inhibition (IC50) in the test on Trichomonas vaginalis and in the test with Leishmania donovani was > 300 µM each time. In addition, the MAC in test [1] is >300 µM.

As to `CCc1ccc(OCc2ccccc2NC(=O)c2ccc3nc(C)cnc3c2)cc1`, the half-inhibitory concentration (IC50) in the test with Trichomonas vaginalis and with Leishmania donovani was > 300 µM in each case. The MAC in test [1] was >300 µM.

In the case of `CCn1c2ccccc2c2cc(N(C(=O)c3ccc4nc(-c5ccccc5)c(-c5ccccc5)nc4c3)C(=O)c3ccc4nc(-c5ccccc5)c(-c5ccccc5)nc4c3)ccc21`, the IC50 in the test with Trichomonas vaginalis and in the test on Leishmania donovani was > 300 µM throughout. Besides, the MAC in test [1] is >300 µM.
